In PMC6079014, “Calcium is an essential cofactor for metal efflux by the ferroportin transporter family” (Nature Communications, 2018):

Tests used:
human Fpn [1] = molecular target: T1, human Fpn (Homo sapiens, UniProt Q9NP59); experiment: 55Fe efflux from HEK293T cells with tet-inducible human Fpn; assay type: cell-based
T1 construct: expressed in transfected cells; host or cells: Xenopus laevis oocytes injected with Fpn RNA
T1 sequence (Q9NP59 1-571): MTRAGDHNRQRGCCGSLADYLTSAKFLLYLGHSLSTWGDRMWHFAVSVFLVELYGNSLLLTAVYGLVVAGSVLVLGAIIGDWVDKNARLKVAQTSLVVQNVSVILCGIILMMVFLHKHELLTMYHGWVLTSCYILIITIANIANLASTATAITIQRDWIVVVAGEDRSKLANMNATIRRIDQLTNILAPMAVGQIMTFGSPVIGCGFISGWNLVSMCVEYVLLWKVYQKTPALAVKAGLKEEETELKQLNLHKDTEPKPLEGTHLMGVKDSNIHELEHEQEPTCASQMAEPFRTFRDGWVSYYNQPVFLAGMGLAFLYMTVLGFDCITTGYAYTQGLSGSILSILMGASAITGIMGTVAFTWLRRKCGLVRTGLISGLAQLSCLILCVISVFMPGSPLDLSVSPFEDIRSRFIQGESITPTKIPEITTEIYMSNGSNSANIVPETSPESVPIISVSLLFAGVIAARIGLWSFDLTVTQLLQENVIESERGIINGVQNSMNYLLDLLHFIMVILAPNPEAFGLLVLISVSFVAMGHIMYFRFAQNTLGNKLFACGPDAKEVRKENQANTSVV
Procedure: We measured ^55Fe efflux from HEK293 cells (E. Nemeth, UCLA) that were stably transfected with a tet-inducible human Fpn construct in pcDNA5/FRT/TO vector (Invitrogen) as described. Fpn expression was induced by adding 0.5 µg/ml doxycycline; data represent % efflux in induced minus uninduced cells. Fpn expression in mammalian cells was confirmed by visualizing GFP fluorescence, which was unaffected by removal of extracellular calcium.

human Fpn [2] = molecular target: T1, human Fpn; experiment: Radiotracer metal efflux assay in Xenopus oocytes expressing human Fpn; assay type: cell-based; conditions: 2 mM extracellular Ca2+ vs 0 mM Ca2+ plus 1 mM EGTA; 50 nl of 50 µM 65Zn injected

[Ca+2] [Ca^2+, calcium]
Effect of extracellular Ca2+ on 55Fe efflux (human Fpn [1]; HEK293T cells, 1 mM Ca2+, over 6 h (P = 0.002) and 24 h (P < 0.001), not at earlier time points): significantly activated | Effect of removal of extracellular Ca2+ on Fpn-mediated 55Fe efflux (human Fpn [1]; HEK cells, 0 Ca2+ + 1 mM EGTA vs 1 mM Ca2+): abolished | Effect of extracellular Ca2+ on Fpn-mediated 65Zn efflux (human Fpn [2]): activated
